Laboratory results as given in patent US20160274087A1, “SCREENING ASSAY FOR AGENTS THAT INFLUENCE BETA CELL NUMBER AND/OR PHENOTYPE” (VRIJE UNIVERSITEIT BRUSSEL, priority 2013, published 2016).
Marks after values point to notes of the source that are not given here.

What was measured:
[1] = biological target: T1, glucocorticoid receptor (GR) (Homo sapiens, UniProt P04150); settings: cited from earlier work
T1 sequence (P04150 1-777): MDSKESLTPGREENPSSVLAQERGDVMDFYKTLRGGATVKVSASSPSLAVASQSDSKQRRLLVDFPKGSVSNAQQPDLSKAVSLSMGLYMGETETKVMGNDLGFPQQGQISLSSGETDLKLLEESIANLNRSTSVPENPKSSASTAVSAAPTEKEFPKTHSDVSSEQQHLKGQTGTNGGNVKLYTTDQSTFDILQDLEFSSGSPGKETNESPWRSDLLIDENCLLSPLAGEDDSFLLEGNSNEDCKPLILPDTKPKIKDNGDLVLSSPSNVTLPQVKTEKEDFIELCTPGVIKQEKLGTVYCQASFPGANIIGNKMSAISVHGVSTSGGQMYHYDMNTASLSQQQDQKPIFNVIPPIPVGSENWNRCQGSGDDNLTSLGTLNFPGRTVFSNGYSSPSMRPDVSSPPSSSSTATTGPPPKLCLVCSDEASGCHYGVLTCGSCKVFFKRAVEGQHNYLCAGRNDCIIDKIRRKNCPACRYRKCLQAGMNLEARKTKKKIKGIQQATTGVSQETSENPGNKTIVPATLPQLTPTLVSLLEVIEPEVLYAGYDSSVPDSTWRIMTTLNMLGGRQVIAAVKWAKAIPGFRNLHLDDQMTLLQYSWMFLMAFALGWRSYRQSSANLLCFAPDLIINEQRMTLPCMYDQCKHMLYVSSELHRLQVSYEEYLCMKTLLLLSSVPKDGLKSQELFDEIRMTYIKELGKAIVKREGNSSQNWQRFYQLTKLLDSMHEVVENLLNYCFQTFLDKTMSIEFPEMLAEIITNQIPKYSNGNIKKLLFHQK

rat beta cells [2] = test: Beta cell viability / cell death (propidium iodide assay); type: cell-based; settings: LOPAC screen at 1 μM; adult rat beta cells; day 6; control medium 97
Description: Numbers of living beta cells were obtained by subtracting the PI-positive cell numbers from the Ho-positive cell numbers, and correcting for the percent insulin-negative cells, as determined following insulin-immunofluorescence staining. They were expressed as percent of the numbers on day 1. […] To detect beta cells that underwent two successive cycles, cells were sequentially exposed to two different thymidine-analogs, first EdU from day 3 to 6, and then BrdU (100 μmol/l) from day 7 to 10, with a 24-hour label-free period in between. EdU-positive (EdU^+) nuclei were detected with the Click-iT Assay kit (Invitrogen), while BrdU-positive (BrdU^+) nuclei were identified with anti-BrdU antibody.
Absolute number of cells was determined by whole-well imaging using the BD-PathwayBioimager855 (BD-Biosciences). IPLab and AttoVision software packages (BD-Biosciences) were used for image background subtraction, segmentation and quantification.
Freshly purified beta cells were cultured in control medium for 24 h prior to the addition of the LOPAC test compounds (day 1). The culture medium was refreshed on day 3 and the cells were then cultured further with 5-ethynyl-2′-deoxyuridine (EdU; 10 μM) up to day 6. […] Thus, a compound is considered a hit only if it increases the percent EdU incorporation to above three standard deviation of the plate-averaged percent EdU incorporation.

rat beta cells [3] = test: Beta cell DNA synthesis/proliferation by EdU (and BrdU) incorporation, incl. LOPAC screen; type: cell-based; settings: LOPAC screen at 1 μM, adult rat beta cells, EdU day 3 to 6
Procedure: On day 1, 9 and 15 of culture, total numbers of living beta cells per well were determined by semi-automatic cell count, after Hoechst 33342 (Ho) and propidium iodide (PI) staining. Numbers of living beta cells were obtained by subtracting the PI-positive cell numbers from the Ho-positive cell numbers, and correcting for the percent insulin-negative cells, as determined following insulin-immunofluorescence staining. They were expressed as percent of the numbers on day 1. Each condition was also evaluated for increases in the percentage of proliferating beta cells (incorporating the thymidine-analogue 5-ethynyl-2′-deoxyuridine, EdU; 100 μmol/l). To detect beta cells that underwent two successive cycles, cells were sequentially exposed to two different thymidine-analogs, first EdU from day 3 to 6, and then BrdU (100 μmol/l) from day 7 to 10, with a 24-hour label-free period in between. EdU-positive (EdU^+) nuclei were detected with the Click-iT Assay kit (Invitrogen), while BrdU-positive (BrdU^+) nuclei were identified with anti-BrdU antibody.
Freshly purified beta cells were cultured in control medium for 24 h prior to the addition of the LOPAC test compounds (day 1). The culture medium was refreshed on day 3 and the cells were then cultured further with 5-ethynyl-2′-deoxyuridine (EdU; 10 μM) up to day 6. Cell viability and percentage EdU incorporation were quantified after imaging and image analysis using the BD Pathway Bioimager, as described before (Assefa et al., 2014). To test the significance of compound effect on beta cell proliferation, average Z-score for each compound was calculated and a cut-off for potential positive hits was set at a Z-score of greater than three standard deviations. Thus, a compound is considered a hit only if it increases the percent EdU incorporation to above three standard deviation of the plate-averaged percent EdU incorporation.
Sorted beta cells were seeded in 384-well or 6-well plates coated with 804G matrix, and kept in culture for up to 15 days at 37° C. 5% CO2 using Ham F10 supplemented with 1 mM L-glutamine, 0.1 mg/ml streptomycin, 0.075 mg/ml penicillin, 50 μM of isobutyl-1-methylxanthine (IBMX) at 10 mM D-glucose with and without synthetic GCs (6 methyl-prednisolone (6MP), dexamethasone (DEX), GR-modulators (compound A (CPA), mifepristone (MIF), and NFκB inhibitors (JSH-23 en Bay11-7085). Total cell number and beta cell viability was evaluated after incubation with Hoechst 33342 and propidium iodide. All chemicals were from Sigma Life Sciences or Merck. Quantification of cell numbers and analysis of beta-cell viability was done using the Pathway Bioimager (BD Biosciences) and using IPlab and Attovision software for background subtraction as described prior (Assefa et al., 2014). Replicating beta cells were quantified after 24 or 72 hrs incubation with 5-ethynyl-2′-deoxyuridine (EdU, a thymidine analog) using the ClickIT EDU Alexa Fluor assay (Invitrogen). EdU-positive cells were expressed as percentage of total cell number.

[4] = tested on: selected gene targets in FACS-purified beta cells; test: Q-PCR on FACS-purified beta cells from dexamethasone-injected rats; settings: 5 single injections DEX 1 mg/kg BW daily
Description: Control rats were given vehicle (saline).
RNA was extracted using RNeasy columns (Qiagen), and quality was verified using an Agilent Bioanalyzer. Following removal of genomic DNA (TURBO DNA-free, Ambion) and reverse-transcription (High-Capacity cDNA Archive Kit, Applied Biosystems), gene targets were amplified on an ABI Prism 7700 using TaqMan Universal PCR Master Mix and TaqMan MGB probes (Applied Biosystems, assay IDs available on request). Expression levels of target genes were normalized to 4 housekeeping genes (β-actin, HPRT1, rplp2 and psmc5) (ΔCt) and expressed versus a control condition as calibrator (comparative ΔΔCt method).

[5] = Metabolic effects of in vivo dexamethasone administration
beta cells = test: Immunohistochemical analysis of Ki67 in pancreas after dexamethasone injection; type: in vivo, rat; settings: DEX 1 mg/Kg BW daily for 5 days; data not shown

## C[C@]12C=CC(=O)C=C1CC[C@H]1[C@@H]3C[C@@H](O)[C@](O)(C(=O)CO)[C@@]3(C)C[C@H](O)[C@@]12F [Triamcinolone]
[1]
  Relative Potencies GR: 5
Rat beta cells [2]
  Percent viable cells: 99%
Rat beta cells [3]; control medium 5.6
  Percent EdU+ cells: 31.1%
Rat beta cells [3]; hit cut-off three standard deviations
  Z-Score: 5.9

## C[C@@H]1C[C@H]2[C@@H]3CCC4=CC(=O)C=C[C@]4(C)[C@@]3(F)[C@@H](O)C[C@]2(C)[C@@]1(O)C(=O)CO [DEX, dexamethasone]
[4]
  Cyclin B1 mRNA level (ΔΔCt values relative to control, adult male): 6.5 ± 2.5 ^3
  Cyclin B2 mRNA level (ΔΔCt values relative to control, adult male): 10.8 ± 5.1 ^3
  CyclinD1 mRNA level (ΔΔCt values relative to control, adult male): 0.9 ± 0.4 ^
  DLK1 mRNA level (ΔΔCt values relative to control, adult male): 33.0 ± 19.1 ^3
  FKBP5 mRNA level (ΔΔCt values relative to control, adult male): 2.4 ± 0.2 ^
  ICAM1 mRNA level (ΔΔCt values relative to control, adult male): 0.1 ± 0.1 ^3
  MafA mRNA level (ΔΔCt values relative to control, adult male): 0.3 ± 0.1 ^
  MafB mRNA level (ΔΔCt values relative to control, adult male): 0.6 ± 0.2 ^
  NPY mRNA level (ΔΔCt values relative to control, adult male): 3.3 ± 0.5 ^3
  NR3C1 mRNA level (ΔΔCt values relative to control, adult male): 0.5 ± 0.1 ^2
  Pdx1 mRNA level (ΔΔCt values relative to control, adult male): 0.4 ± 0.2 ^
[5]; DEX 1 mg/Kg BW daily for 5 consecutive days
  loss of body weight: 20%
[5]; DEX 1 mg/Kg BW daily for 5 days, MOCK 48 ± 7
  insulin content: 22 ± 3 ng/K beta cells
[5]; DEX 1 mg/Kg BW daily for 5 days, MOCK 81 ± 3
  IPGT 90 min: 278 ± 44 mg/dL
[5]; DEX 1 mg/Kg BW daily for 5 days, MOCK 82 ± 2
  IPGT 120 min: 227 ± 62 mg/dL
[5]; DEX 1 mg/Kg BW daily for 5 days, MOCK 83 ± 5
  IPGT 60 min: 375 ± 54 mg/dL
[5]; DEX 1 mg/Kg BW daily for 5 days, MOCK 85 ± 3
  Fasting glycemia: 169 ± 77 mg/dL
[5]; DEX 1 mg/Kg BW daily for 5 days, MOCK 100
  Islet insulin content: 37 ** ng/islet
[5]; DEX 1 mg/Kg BW daily for 5 days, MOCK 180 ± 14
  IPGT 30 min: 456 ± 41 mg/dL
[5]; DEX 1 mg/Kg BW daily for 5 days, MOCK 360 ± 43
  IPGT 15 min: 497 ± 16 mg/dL
[5]; DEX 1 mg/Kg BW daily for 5 days, MOCK 4927 ± 724
  Serum insulin: 8447 ± 472 pg/mL
[5]; DEX 1 mg/Kg BW daily i.p. for 5 days, MOCK 382 ± 13
  Body weight Day 6: 304 ± 11 g
[5]; DEX group before treatment, MOCK 356 ± 8
  Body weight Day 0: 363 ± 13 g
Beta cells
  increase of the percentage beta cells positive for Ki67: 3 fold
